From article PMC4827351 (Chemical Science, 2015)

Columns and labels:
[1] = Sedimentation velocity analytical ultracentrifugation; type: physicochemical; conditions: SV-AUC; for s20,w: 42 000 rpm, 20 °C, A280, DCDT+; for MW (best-fit molecular mass) / D: DCDT+
Experimental: The experiments were set up as previously reported.[15] In one set of experiments, 10× concentrated proHD6 solutions in Milli-Q water (≈40 μL) were transferred to microcentrifuge tubes and lyophilized to dryness. […] The pH of each solution was measured to confirm that it remained unchanged. The samples were centrifuged at 42 000 rpm and 20 °C until sedimentation was complete. The absorption wavelength for optical detection was 280 nm. All SV experiments were conducted with at least two independently prepared and purified samples of each peptide and in at least two independent trials.
Additional SV experiments were conducted to evaluate the effect of buffer components on the sedimentation of proHD6. In all cases, the proHD6 samples (400 μL) were prepared as described above except that proHD6 was dissolved in 10 mM Tris–HCl or HEPES pH 7.4 to obtain a final peptide concentration of 50 μM.
The experimental sedimentation coefficients were calculated by fitting the time derivative of the sedimentation velocity (–dc/dt) data using DCDT+.[29],[54] The –dc/dt distribution was generated from 22 to 28 scans with a peak broadening limit of 40 kDa by using DCDT+.
Table S4. Calculated sedimentation coefficients of proHD6.a
Concentration Buffer pH s20,w (S) D (F) MW (kDa) Partial Specific
(µM) (10 mM) Volume (mL/g) […]
a All samples were prepared in the indicated buffer; NaP is sodium phosphate. The temperature was 20 °C. Data were obtained by analysis with the dc/dt method implemented in DCDT+ using 22- 28 scans with 40 kDa diffusion broadening maximum. Sedimentation coefficients are s20,w values, adjusted with a solvent density (ρ) of 0.99967 g/mL and a solvent viscosity (η) of 1.0061 cP. Viscosity units are in centipoise (cP) (1 poise = 1 gŸ[…]cm-1Ÿ[…]s-1). Sedimentation coefficients are in svedbergs (1 svedberg = 100 fs = 1 x 10-13 s). Diffusion coefficients correspond to the best-fit molecular mass in Fick units (1 Fick = 1 x 10-7 cm2/s). HEPES has a solvent density (ρ) of 0.99901 g/mL and a solvent viscosity (η) of 1.0104 cP at 20 °C. Tris-HCl has a solvent density (ρ) of 0.99851 g/mL and a solvent viscosity (η) of 1.0037 cP at 20 °C. The solvent densities, viscosities, and the partial specific volume values of proHD6 monomer and dimer were […]

[2] = test system: Listeria monocytogenes ATCC 19115; assay: Antimicrobial activity assay (CFU counting); type: cell-based; conditions: 50 µM peptide, 1 h, 37 °C, 10 mM sodium phosphate buffer containing 1% v/v TSB, n = 3
Experimental: (§1) The assays were performed according to a literature procedure.[15] Briefly, a 90 μL aliquot of the diluted bacterial culture was added to each well and then to each well was added 10 μL of a 10× concentrated aqueous peptide solution (500 μM) or sterile Milli-Q water as a no-peptide control. The plate was incubated for 1 h (37 °C, 150 rpm). The serial dilution for CFU counting was conducted as previously reported.[15] These assays were performed with at least two independently prepared and purified samples of each peptide and in three independent trials. The resulting averages and standard deviations are reported. […]
(§2) a bE. coliL. monocytogenes
(§3) Concentration (µM) Concentration (µM)
(§4) Figure S4. Antibacterial activity assays against E. coli ATCC 25922 and L. monocytogenes ATCC 19115. The bacteria were treated with 50 µM of each peptide for 1 h at 37 ° C in 10 mM sodium phosphate buffer containing 1% v/v TSB (mean ± SDM, n = 3). An asterisk indicates no […]
(§5) Retention Time (min) Retention Time (min)
(§6) Figure S5. In vitro trypsin-catalyzed proteolysis of proHD6. Analytical HPLC traces of trypsin-treated (a) proHD6 or (b) mature HD6 (30 µM x 80 µL) at indicated time points. Absorbance at 220 nm was monitored with a reference wavelength of 500 nm. Method: 10–60% B over 30 min

[3] = test system: Escherichia coli ATCC 25922; assay: Antimicrobial activity assay (CFU counting); type: cell-based; conditions: 50 µM peptide, 1 h, 37 °C, 10 mM sodium phosphate buffer containing 1% v/v TSB, n = 3
Experimental: as §1, §2, §3, §4, §5, §6

[4] = proHD6 30 µM, 10 mM NaP pH 7.4, first 30 µM line
[5] = proHD6 30 µM, 10 mM NaP pH 7.4, second 30 µM line
[6] = proHD6 30 µM, 10 mM NaP pH 7.4, third 30 µM line
[7] = proHD6 50 µM, 10 mM HEPES pH 7.4
[8] = proHD6 50 µM, 10 mM NaP pH 7.4, first 50 µM line
[9] = proHD6 50 µM, 10 mM NaP pH 7.4, second 50 µM line
[10] = proHD6 50 µM, 10 mM Tris-HCl pH 7.4
[11] = proHD6 100 µM, 10 mM NaP pH 7.4
[12] = proHD6 120 µM, 10 mM NaP pH 7.4
[13] = proHD6 140 µM, 10 mM NaP pH 7.4

EPLQAEDDPLQAKAYEADAQEQRGANDQDFAVSFAEDASSSLRALGSTRAFTCHCRRSCYSTEYSYGTCTVMGINHRFCCL (disulfide (positions not given here)) [proHD6, 81-residue propeptide of human α-defensin 6, recombinant, from His6-SUMO-proHD6]
s20,w [1, 4]: 1.727 S
s20,w [1, 5]: 1.798 S
s20,w [1, 6]: 1.733 S
s20,w [1, 7]: 1.763 S
s20,w [1, 8]: 1.844 S
s20,w [1, 9]: 1.865 S
s20,w [1, 10]: 1.783 S
s20,w [1, 11]: 1.843 S
s20,w [1, 12]: 1.769 S
s20,w [1, 13]: 1.751 S
MW (best-fit molecular mass) [1, 4]: 14.3 kDa
D ([1]; proHD6 30 µM, 10 mM NaP pH 7.4, first 30 µM line, 1 Fick = 1 x 10-7 cm2/s): 9.83 F
D [1, 5]: 11.5 F
MW (best-fit molecular mass) [1, 5]: 12.8 kDa
D [1, 6]: 9.73 F
MW (best-fit molecular mass) [1, 6]: 14.5 kDa
D [1, 7]: 9.94 F
MW (best-fit molecular mass) [1, 7]: 14.4 kDa
D [1, 8]: 10.4 F
MW (best-fit molecular mass) [1, 8]: 14.4 kDa
D [1, 9]: 10.3 F
MW (best-fit molecular mass) [1, 9]: 14.8 kDa
D [1, 10]: 8.97 F
MW (best-fit molecular mass) [1, 10]: 16.1 kDa
D [1, 11]: 13.8 F
MW (best-fit molecular mass) [1, 11]: 10.9 kDa
D [1, 12]: 9.16 F
MW (best-fit molecular mass) [1, 12]: 15.7 kDa
D [1, 13]: 9.47 F
MW (best-fit molecular mass) [1, 13]: 15.0 kDa
antibacterial activity [2]: does not exhibit antibacterial activity
antibacterial activity [3]: does not exhibit antibacterial activity
